# Patent US20200123104A1, “PHARMACEUTICAL AGENT THAT BINDS THE P2X7 RECEPTOR” (Indiana University Research and Technology Corporation, priority 2017, published 2020)
# Where “and” joins values, the source holds several entries; their conditions need not be identical. Equal values may be shown once.
# Experiments:
# [1] = target: T1, human P2X7R (HEK293-hP2X7R) (Homo sapiens, UniProt Q99572); test: Saturation and kinetic radioligand binding of 11C-GSK1482160 to HEK293-hP2X7R
# T1 construct: expressed in transfected cells; host or cells: HEK293
# T1 sequence (Q99572 1-595): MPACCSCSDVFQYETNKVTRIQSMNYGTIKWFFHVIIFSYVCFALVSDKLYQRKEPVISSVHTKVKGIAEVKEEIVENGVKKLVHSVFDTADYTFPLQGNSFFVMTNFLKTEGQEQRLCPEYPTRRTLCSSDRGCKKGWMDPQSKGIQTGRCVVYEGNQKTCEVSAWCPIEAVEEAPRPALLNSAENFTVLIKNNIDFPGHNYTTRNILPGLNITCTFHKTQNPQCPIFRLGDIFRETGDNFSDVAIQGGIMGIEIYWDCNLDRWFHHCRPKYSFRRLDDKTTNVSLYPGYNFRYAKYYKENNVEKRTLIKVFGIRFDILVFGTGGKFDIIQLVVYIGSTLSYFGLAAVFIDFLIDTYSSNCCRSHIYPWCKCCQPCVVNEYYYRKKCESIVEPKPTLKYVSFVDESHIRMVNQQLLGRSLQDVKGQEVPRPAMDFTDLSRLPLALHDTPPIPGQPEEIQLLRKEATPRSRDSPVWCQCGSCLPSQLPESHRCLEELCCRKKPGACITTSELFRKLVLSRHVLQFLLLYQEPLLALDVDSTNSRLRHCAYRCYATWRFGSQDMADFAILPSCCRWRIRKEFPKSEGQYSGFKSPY
# Procedure: Receptor density (Bmax) is determined by a saturation approach as employed with each P2X7-receptor ligand employing [^11C]GSK1482160 as a convenient reference ligand that is expected to bind in the same region of the receptor. […] Samples and control wells are run in triplicate at each concentration. After equilibrium has been reached, separation of bound from free [^11C]GSK1482160 radioligand is performed using a 96-well filtration apparatus. To estimate receptor association (kon) and dissociation (koff) rates, an association/dissociation kinetic experiment is performed. Association is measured as a function of time using cell membrane homogenate from HEK-P2X7 cells incubated with 2-4 concentrations of the ^18F-radioligand. Dissociation is measured in the presence of excess authentic standard once at steady state according to published methods. Radioactivity for both studies is measured on the filters (or filter plates) using a Perkin-Elmer TopCount Data is analyzed and plotted using GraphPad Prism to obtain Bmax and Kd values for the compound.
# P2X7 receptor [2] = target: T2, P2X7 receptor (Homo sapiens, UniProt Q99572); details: read-out: P2X7 receptor affinity (KB) (converted); cited from earlier work
# T2 sequence (Q99572 1-595): T1 sequence (Q99572 1-595)
# [3] = in vivo; cited from earlier work
# P2X7 receptor [4] = target: T2, P2X7 receptor; test: Competitive binding with [11C]GSK1482160 as reference tracer, membrane homogenate of HEK cells transfected with the human P2X7 gene; set-up: host or cells: HEK (human embryonic kidney) cells, membrane homogenate; details: HEK-hP2X7 membrane homogenate, [11C]GSK1482160 reference tracer
# Procedure: Samples and control wells are run in triplicate at each concentration. After equilibrium has been reached, separation of bound from free [^11C]GSK1482160 radioligand is performed using a 96-well filtration apparatus. To estimate receptor association (kon) and dissociation (koff) rates, an association/dissociation kinetic experiment is performed. Association is measured as a function of time using cell membrane homogenate from HEK-P2X7 cells incubated with 2-4 concentrations of the ^18F-radioligand. Dissociation is measured in the presence of excess authentic standard once at steady state according to published methods. Radioactivity for both studies is measured on the filters (or filter plates) using a Perkin-Elmer TopCount Data is analyzed and plotted using GraphPad Prism to obtain Bmax and Kd values for the compound.
compound,measurement,setting,value
[11CH3]N1C(=O)CC[C@H]1C(=O)NCc1cccc(C(F)(F)F)c1Cl [[^11C]GSK1482160],Kd,[1]; read-out: K,0.00115 ± 0.00012 µM
same,koff,[1]; read-out: dissociation constant koff (converted),0.00425 s⁻¹
same,Kb,P2X7 receptor [2],0.0959 µM and 0.095 µM
same,crossing of the blood-brain barrier,[3],readily crosses the blood-brain barrier
same,Ki,P2X7 receptor [4],0.00514 ± 0.00085 µM
